“Also recorded” adds a separate entry of the source. Where two headings read alike, the source gives them in different places.
Key:
[1] = test system: Colo 320/MDR-LRP resistant colon adenocarcinoma cells; assay: MTT assay for cytotoxic effect, Colo 320; type: cell-based, human; conditions: 24 h incubation, triplicate, read-out: Colo320 (IC50 μM) mean
Protocol: (§1) The human colon adenocarcinoma cell lines, the Colo 205 (ATCC-CCL-222) doxorubicin-sensitive parent and Colo 320/MDR-LRP (ATCC-CCL-220.1) resistant to anticancer agents expressing ABCB1, were purchased from LGC Promochem (Teddington, UK). […] The cell lines were incubated in a humidified atmosphere (5% CO2, 95% air) at 37 °C. The effects of increasing concentrations of the compounds on cell growth were tested in 96-well flat-bottomed microtiter plates. The 2-fold serial dilutions of the tested compounds were made starting with 100 μM. Then, 10^4 human colonic adenocarcinoma cells in 100 μL of the medium (RPMI-1640) were added to each well, except for the medium control wells. The adherent human embryonic lung fibroblast cell line (10^4/well) was seeded in EMEM medium in 96-well flat-bottomed microtiter plates for 4 h before the assay. The serial dilutions of the compounds were made in a separate plate starting with 100 μM and then transferred to the plates containing the adherent corresponding cell line. Culture plates were incubated at 37 °C for 24 h; at the end of the incubation period, 20 μL of MTT (thiazolyl blue tetrazolium bromide) solution (from a 5 mg/mL stock solution) was added to each well. After incubation at 37 °C for 4 h, 100 μL of sodium dodecyl sulfate (SDS) solution (10% SDS in 0.01 M HCl) was added to each well, and the plates were further incubated at 37 °C overnight. Cell growth was determined by measuring the optical density (OD) at 540 nm (ref 630 nm) with a Multiscan EX ELISA reader (Thermo Labsystems, Cheshire, WA, USA). […] IC50 values and the SD of triplicate experiments were calculated by using GraphPad Prism software version 5.00 for Windows with nonlinear regression curve fit (GraphPad Software, San Diego, CA, USA; www.graphpad.com).

[2] = test system: Colo 205 doxorubicin-sensitive colon adenocarcinoma cells; assay: MTT assay for cytotoxic effect, Colo 205; type: cell-based, human; conditions: 24 h incubation, triplicate, read-out: Colo205 (IC50 μM) mean
Protocol: as §1

[3] = biological target: P-glycoprotein (ABCB1) in MDR Colo 320 cells (Homo sapiens, UniProt P08183); assay: Rhodamine 123 accumulation assay (P-gp efflux pump inhibition); type: cell-based
Protocol: The inhibitory activities of compounds 1–3, 5, and 6 on efflux function were evaluated by measuring the intracellular accumulation of rhodamine 123, a well-known P-glycoprotein substrate fluorescent dye, within the Colo320 MDR cells. Tariquidar, a strong P-gp inhibitor, was used as positive control. All tested compounds were dissolved in DMSO, and the final concentration (2.00%) of the solvent was investigated for any effect on the retention of rhodamine 123. […] The cell numbers of the human colon adenocarcinoma cell lines were adjusted to 2 × 10^6 cells/mL, resuspended in serum-free RPMI 1640 medium, and distributed in 0.5 mL aliquots into Eppendorf centrifuge tubes. […] DMSO at 2% v/v was used as solvent control. Next, 10 μL (5.2 μM final concentration) of the fluorochrome and ABCB1 substrate rhodamine 123 (Sigma) were added to the samples, and the cells were incubated for a further 20 min at 37 °C, washed twice, and resuspended in 1 mL of PBS for analysis. The fluorescence of the cell population was measured with a PartecCyFlow flow cytometer (Partec, Münster, Germany). The FAR was calculated as the quotient between FL-1 of the treated/untreated resistant Colo 320 cell line over the treated/untreated sensitive Colo 205 cell line according to the following equation: [drawing 2]

[4] = MTT assay for cytotoxic effect, MRC-5; type: cell-based, human; conditions: human
Protocol: as §1

[5] = test system: Colo 320 colon adenocarcinoma cell line; assay: Checkerboard combination assay with doxorubicin; type: cell-based, human; conditions: for interaction (type of interaction with doxorubicin): Colo 320, based on combination indices; for CI at ED50 (combination index value at the 50% growth inhibition dose): with doxorubicin, Colo 320, 72 h, at best ratio
Protocol: A checkerboard microplate combination assay was performed, which is a widely used in vitro method for the assessment of drug interactions. […] The assay was carried out on the Colo 320 colon adenocarcinoma cell line. The final concentration of the compounds and doxorubicin used in the combination experiment was chosen in accordance with their cytotoxicity toward this cell line. The dilutions of doxorubicin were made in a horizontal direction in 100 μL, and the dilutions of the compounds vertically in the microtiter plate in a 50 μL volume. Then, 6 × 10^3 of Colo 320 cells in 50 μL of the medium were added to each well, except for the medium control wells. The plates were incubated for 72 h at 37 °C in a 5% CO2 atmosphere. The cell growth rate was determined after MTT staining. At the end of the incubation period, 20 μL of MTT solution (from a stock solution of 5 mg/mL) was added to each well. After incubation at 37 °C for 4 h, 100 μL of SDS solution (10% in 0.01 M HCI) was added to each well, and the plates were further incubated at 37 °C overnight. OD was measured at 540 nm (ref 630 nm) with a Multiscan EX ELISA reader.

[6] = test system: MRC-5 embryonic lung fibroblast cell line; assay: MTT assay for cytotoxic effect, MRC-5; type: cell-based, human; conditions: MTT, 24 h incubation, triplicate
Protocol: as §1

[7] = test system: resistant (Colo 320) human colon adenocarcinoma cells; set-up: method as in PMID 33809760; conditions: resistant Colo 320 cells; cited from earlier work
[8] = test system: sensitive (Colo 205) human colon adenocarcinoma cells; set-up: method as in PMID 33809760; conditions: sensitive Colo 205 cells; cited from earlier work
[9] = test system: panel of 71 human cancer cells from 15 tumor types; set-up: method as in PMID 29931585; conditions: against 27 cell lines of a panel of 71 human cancer cells; read-out: cytotoxicity IC50; cited from earlier work
[10] = MRC-5 embryonic lung fibroblast cells, MTT, 24 h incubation, triplicate, read-out: MRC-5 (IC50 μM) mean

Chain of P-glycoprotein (ABCB1) in MDR Colo 320 cells (P08183 whole entry): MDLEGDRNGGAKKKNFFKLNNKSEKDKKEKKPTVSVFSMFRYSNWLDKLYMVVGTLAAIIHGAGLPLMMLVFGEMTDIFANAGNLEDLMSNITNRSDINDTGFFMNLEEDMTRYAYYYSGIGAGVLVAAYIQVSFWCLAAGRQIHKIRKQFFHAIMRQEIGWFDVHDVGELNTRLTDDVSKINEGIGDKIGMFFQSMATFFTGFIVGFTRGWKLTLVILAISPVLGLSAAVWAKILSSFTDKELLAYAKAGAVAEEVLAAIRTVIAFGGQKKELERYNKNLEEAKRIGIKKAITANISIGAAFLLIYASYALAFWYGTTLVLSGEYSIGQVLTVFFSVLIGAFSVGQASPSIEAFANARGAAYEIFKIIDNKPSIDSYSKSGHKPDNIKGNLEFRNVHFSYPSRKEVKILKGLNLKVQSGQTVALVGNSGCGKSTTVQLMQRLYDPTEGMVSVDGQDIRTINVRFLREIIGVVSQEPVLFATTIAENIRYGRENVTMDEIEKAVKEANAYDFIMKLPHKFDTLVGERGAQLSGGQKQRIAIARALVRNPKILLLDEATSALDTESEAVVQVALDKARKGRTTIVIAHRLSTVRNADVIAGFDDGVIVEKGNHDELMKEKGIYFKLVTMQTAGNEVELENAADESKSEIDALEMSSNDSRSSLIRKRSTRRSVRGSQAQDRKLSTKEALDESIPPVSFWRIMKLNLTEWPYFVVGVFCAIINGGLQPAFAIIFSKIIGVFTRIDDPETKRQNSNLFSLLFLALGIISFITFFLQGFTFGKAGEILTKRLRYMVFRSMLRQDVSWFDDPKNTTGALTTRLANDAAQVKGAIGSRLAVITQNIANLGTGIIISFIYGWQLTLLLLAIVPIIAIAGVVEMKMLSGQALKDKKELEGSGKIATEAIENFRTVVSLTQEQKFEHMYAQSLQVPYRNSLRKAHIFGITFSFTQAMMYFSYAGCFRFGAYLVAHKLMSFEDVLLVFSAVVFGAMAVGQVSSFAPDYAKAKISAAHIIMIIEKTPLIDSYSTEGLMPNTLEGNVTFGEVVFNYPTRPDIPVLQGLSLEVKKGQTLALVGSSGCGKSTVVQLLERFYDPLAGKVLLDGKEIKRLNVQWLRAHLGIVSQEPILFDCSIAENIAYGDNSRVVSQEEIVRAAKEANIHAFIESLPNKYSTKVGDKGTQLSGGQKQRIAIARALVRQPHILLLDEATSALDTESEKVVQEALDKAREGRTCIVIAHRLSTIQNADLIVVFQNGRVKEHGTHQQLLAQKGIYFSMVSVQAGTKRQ

| Structure (SMILES) | IC50 ([1]; Homo sapiens, COLO 320, 24 h) [µM] | IC50 ([2]; Homo sapiens, COLO 205, 24 h) [µM] | FAR (fluorescence activity ratio) ([3]; human, 20 min, 20 μM) | FL-1 ([3]; human, 20 min, 20 μM) | Peak Ch ([3]; human, 20 min, 20 μM) | IC50 at 24 h ([4]; MRC-5 (IC50 μM) mean) [µM] | IC50 [1] [µM] | IC50 [2] [µM] | interaction (type of interaction with doxorubicin) [5] | CI at ED50 (combination index value at the 50% growth inhibition dose) [5] | other results |
| --- | --- | --- | --- | --- | --- | --- | --- | --- | --- | --- | --- |
| CC(=O)O[C@H]1[C@H](OC(=O)C[C@](C)(O)CC(=O)O)C[C@]2(C)C3=C(C(=O)C[C@H]2C1(C)C)[C@]1(C)CC[C@H]([C@H](C)CCC(=O)C(C)(C)O)[C@@]1(C)CC3 [compound 1, pholiol A] | > 100 | > 100 | 3.418 | 39.600 | 42.200 | > 100 | – | – | – | – | – |
| COC(=O)C[C@@](C)(O)CC(=O)O[C@@H]1C[C@]2(C)C3=C(C(=O)C[C@H]2C(C)(C)[C@H]1OC(C)=O)[C@]1(C)CC[C@H]([C@H](C)CCC(=O)C(C)(C)O)[C@@]1(C)CC3 [compound 2, pholiol B] | – | – | 6.880 | 79.700 | 77.700 | – | > 25 | > 25 | synergistic | 0.348 | IC50 ([1]; listed as Pholiol B (2)): 61.5 µM; IC50 ([2]; listed as Pholiol B (2)): 67.9 µM; interaction (type of interaction with doxorubicin) ([5]; listed as pholiol B (2)): synergism |
| CC(=O)O[C@H]1[C@H](OC(=O)C[C@](C)(O)CC(=O)O)C[C@]2(C)C3=C(CC[C@H]2C1(C)C)[C@]1(C)CC[C@H]([C@H](C)CCC(=O)C(C)(C)O)[C@@]1(C)[C@H](O)C3 [compound 3, pholiol C] | > 100 | > 100 | 0.967 | 11.200 | 18.400 | > 100 | – | – | – | – | – |
| COC(=O)C[C@@](C)(O)CC(=O)O[C@@H]1C[C@]2(C)C3=C(CC[C@H]2C(C)(C)[C@H]1OC(C)=O)[C@]1(C)CC[C@H]([C@H](C)CCC(=O)C(C)(C)O)[C@@]1(C)[C@H](O)C3 [compound 4, pholiol D] | 48.9 | – | – | – | – | – | > 25 | > 25 | synergistic | 0.660 | IC50 ([2]; listed as Pholiol D (4)): 51.4 µM; interaction (type of interaction with doxorubicin) ([5]; listed as pholiol D (4)): Synergism |
| C/C(=C\CC/C=C(\C)CC/C=C(\C)CC[C@H](O)C(C)(C)O)CC/C=C(\C)CC[C@H](O)C(C)(C)O [compound 5, (3S,6E,10E,14E,18E,22S)-2,3,22,23-tetrahydroxy-2,6,10,15,19,23-hexamethyl-6,10,14,18-tetracosatetraene] | 27.5 | 26.7 | – | – | – | – | > 25 | > 25 | very strong synergistic; also recorded: synergistic | 0.082 | interaction (type of interaction with doxorubicin) ([5]; listed as compound 5): very strong synergism; FAR (fluorescence activity ratio) ([3]; conc. 20 μM, rhodamine 123, Colo 320 vs Colo 205): 6.638; P-gp MDR efflux pump inhibitory activity (in words) ([3]; resistant Colo320 cells, rhodamine 123 accumulation): inhibition of P-gp MDR efflux pump activity; also recorded: capacity to inhibit the efflux-pump; also recorded: moderate P-gp inhibitory activity; IC50 [6]: > 25 µM; IC50 at 24 h [4, 10]: 29.1 µM |
| CC(C)[C@@H](C)/C=C/[C@@H](C)[C@H]1CC[C@H]2C3=CC=C4C[C@@H](O)CC[C@]4(C)[C@H]3CC[C@]12C [compound 6, ergosterol] | – | – | – | – | – | 0.5 | – | – | – | – | interaction (type of interaction with doxorubicin) ([5]; listed as ergosterol (6)): additive effect; also recorded: nearly additive |
| COc1cccc2c1C(=O)c1c(O)c3c(c(O)c1C2=O)C[C@@](O)(C(=O)CO)C[C@@H]3O[C@H]1C[C@H](N)[C@H](O)[C@H](C)O1 [doxorubicin, reference compound] | – | – | – | – | – | – | 7.4 | 2.5 | – | – | IC50 at 24 h [4, 10]: > 20 µM |
| CC(C)[C@@H](C)C=C[C@@H](C)[C@H]1CC[C@H]2C3=CCC4CC(=O)CC[C@]4(C)[C@H]3CC[C@]12C (stereo partly shown) [ergosta-7,22-diene-3-one] | – | – | – | – | – | – | – | – | – | – | IC50 [7]: 8.4 ± 1.1 µM; IC50 [8]: 11.6 ± 1.7 µM |
| CC(C)=CCC[C@@H](C)[C@@H]1CC[C@]2(C)C3=C(CC[C@@]12C)[C@@]1(C)CC[C@H](O)C(C)(C)[C@@H]1CC3 [euphol] | – | – | – | – | – | – | – | – | – | – | IC50 [9]: < 10 µM |
| COc1cc2c(cc1OC)CN(CCc1ccc(NC(=O)c3cc(OC)c(OC)cc3NC(=O)c3cnc4ccccc4c3)cc1)CC2 [tariquidar, reference compound] | – | – | – | – | – | – | – | – | – | – | FAR (fluorescence activity ratio) ([3]; conc. 0.2 μM, positive control, rhodamine 123): 5.533 |
